Consider twelve molecules from ChEMBL document CHEMBL1201862, “PubChem BioAssay data set” (2004).

Among the test systems are 786-0; ACHN; EKVX; HCC 2998; HCT-15; HOP-62; K562; MCF7; MOLT-4; Malme-3M; NCI-H23; PC-3; SK-MEL-28; SK-MEL-2; SN12C; SNB-75; SR; TK-10; U-251; DMS-273.
Holding throughout (test): NCI tumour cell line growth inhibition, 48 h

The structures appear in SMILES notation.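 Exposure lasted 48 hours, with cells grown in 96-well plates and compounds tested at five concentrations. Here, GI50 denotes the concentration required for 50% inhibition of growth.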 Calls of active or inactive are those of the source. Rule as the data show it: active = GI50 up to about 1.1 µM and inactive = higher. Peptide text beside a SMILES is read from it. * marks the point of attachment. Cbz = O=C(OCc1ccccc1)*; CH2Cl = ClC*

Take `Cc1ccc(C2NC(=O)c3ccccc3N2)c(C)c1` (stereo not drawn): the GI50 in the assay on 786-0 is 3.97 µM (inactive); with ACHN, 6.82 µM (inactive); in the assay with EKVX, 8.17 µM (inactive); in the assay with HCC 2998, 4.52 µM (inactive); in the assay on HCT-15, 1.08 µM; in the assay on HOP-62 it was 5.13 µM (inactive). For the same molecule, the GI50 in the assay on K562 is 0.378 µM (active); in the assay with MCF7, 1.07 µM (active); with MOLT-4, 0.736 µM (active); with Malme-3M, 1.69 µM (inactive); with NCI-H23 it was 7.14 µM (inactive); in the assay with PC-3, 1.66 µM (inactive). Also, the GI50 in the assay on SK-MEL-28 was 6.58 µM (inactive); in the assay on SK-MEL-2, 1.77 µM (inactive); in the assay with SN12C, 6.9 µM (inactive); in the assay with SNB-75, 1.92 µM (inactive); with SR it was 0.807 µM (active); in the assay with TK-10, 7.33 µM (inactive). The GI50 in the assay with U-251 is 2.59 µM (inactive).
For the molecule `COC(=O)C(Cc1c[nH]c2ccccc12)NC(=O)C(Cc1c[nH]c2ccccc12)NC(=O)OCc1ccccc1` (stereo not drawn), the GI50 in the assay on 786-0 was 16.2 µM (inactive); in the assay on ACHN, 21.6 µM (inactive); in the assay on DMS-273 it was 16 µM (inactive); with EKVX, 18.6 µM (inactive); with HCC 2998 it was 17.8 µM (inactive); in the assay on HCT-15 it was 17.4 µM. For the same molecule, the GI50 is 19.7 µM (inactive) in the assay on HOP-62; 23.6 µM (inactive) in the assay with K562; 39.6 µM (inactive) in the assay with Malme-3M; 17.3 µM (inactive) with NCI-H23; 17.7 µM (inactive) in the assay with SK-MEL-28; 17.1 µM (inactive) in the assay on SN12C. Moreover, the GI50 in the assay with SNB-75 is 21.6 µM (inactive); with TK-10, 22.8 µM (inactive); with U-251, 16.9 µM (inactive).
On to `O=C(CCC(=O)C(C(=O)c1ccccc1)c1ccccc1)Nc1cccc(C(F)(F)F)c1` (stereo not drawn), for which the GI50 was > 100 µM (inactive) in the assay with 786-0; > 100 µM (inactive) in the assay with ACHN; > 100 µM (inactive) with DMS-273; > 100 µM (inactive) in the assay with EKVX; > 100 µM (inactive) with HCC 2998; greater than 100 µM in the assay with HCT-15. Also, the GI50 with K562, with MOLT-4, with Malme-3M, in the assay with NCI-H23, in the assay with SK-MEL-2 and with SN12C was > 100 µM (inactive) each time. Moreover, the GI50 in the assay with TK-10 and in the assay with U-251 was > 100 µM (inactive) each time.
With `N#CC(C#N)=c1c2nsnc2c(=C(C#N)C#N)c2nsnc12`, the GI50 with 786-0 is 5.16 µM (inactive); in the assay on ACHN, 1.81 µM (inactive); in the assay on DMS-273 it was 1.57 µM (inactive); with EKVX, 4.2 µM (inactive); in the assay with HCC 2998, 1.77 µM (inactive); in the assay with HOP-62, 2.04 µM (inactive). In addition, the GI50 in the assay with Malme-3M was 1.65 µM (inactive); in the assay with NCI-H23, 2.01 µM (inactive); in the assay on SK-MEL-28, 1.87 µM (inactive); in the assay with SK-MEL-2, 2.02 µM (inactive); in the assay with SNB-75, 1.51 µM (inactive); in the assay with TK-10, 16 µM (inactive). Besides, in the assay on U-251, the GI50 was 1.79 µM (inactive).
`O=C1OC(C2Cc3ccccc3C2=O)c2ccccc21` (stereo not drawn): the GI50 in the assay with 786-0 was > 100 µM (inactive); with ACHN it was > 100 µM (inactive); in the assay on EKVX, > 100 µM (inactive); in the assay with HCC 2998, > 100 µM (inactive); with HCT-15, greater than 100 µM; with HOP-62, > 100 µM (inactive). Moreover, the GI50 with K562, with MCF7, in the assay with MOLT-4, with Malme-3M, in the assay with NCI-H23 and in the assay with PC-3 was > 100 µM (inactive) each time. For the same molecule, the GI50 with SK-MEL-28, in the assay on SK-MEL-2, in the assay with SN12C, with SNB-75, in the assay with SR and with TK-10 was > 100 µM (inactive) throughout. Moreover, the GI50 with U-251 is > 100 µM (inactive).
In the case of `CNn1c(-c2ccccc2)n[nH]c1=O`, the GI50 was > 100 µM (inactive) in the assay with 786-0; > 100 µM (inactive) in the assay with ACHN; > 100 µM (inactive) in the assay with EKVX; > 100 µM (inactive) with HCC 2998; greater than 100 µM in the assay with HCT-15; > 100 µM (inactive) in the assay with HOP-62. Also, the GI50 in the assay with K562, with MCF7, in the assay with MOLT-4, with Malme-3M, with NCI-H23 and in the assay with PC-3 was > 100 µM (inactive) in each case. Further, the GI50 in the assay on SK-MEL-28, in the assay with SK-MEL-2, in the assay on SN12C, with SNB-75, in the assay with SR and with TK-10 was > 100 µM (inactive) throughout. The GI50 with U-251 is > 100 µM (inactive).
Turning to `O=C(N/N=C\c1ccc([N+](=O)[O-])cc1)Nc1cccc2ccccc12`, the GI50 in the assay on 786-0 is 7.1 µM (inactive); in the assay on ACHN it was 27.5 µM (inactive); in the assay with EKVX it was 29.1 µM (inactive); with HCC 2998, 24.1 µM (inactive); in the assay on HCT-15, greater than 50.5 µM; in the assay with HOP-62, 5.93 µM (inactive). In addition, the GI50 was > 100 µM (inactive) with K562; > 43.7 µM (inactive) in the assay on MCF7; > 100 µM (inactive) in the assay on MOLT-4; 27.7 µM (inactive) in the assay on Malme-3M; 18.8 µM (inactive) in the assay with NCI-H23; 23 µM (inactive) in the assay on PC-3. In addition, the GI50 was > 100 µM (inactive) with SK-MEL-28; 5.55 µM (inactive) in the assay with SK-MEL-2; 48.9 µM (inactive) with SN12C; 3.23 µM (inactive) with SNB-75; > 55.1 µM (inactive) in the assay with SR; 14.5 µM (inactive) in the assay on TK-10. Moreover, the GI50 in the assay on U-251 is 4.79 µM (inactive).
`CCOC(=O)C12CCCC1(O)N(NC(=O)OC)C(C)=C2C(=O)OC` (stereo not drawn): the GI50 in the assay on 786-0 is 20.4 µM (inactive); in the assay on ACHN, > 100 µM (inactive); with DMS-273, > 100 µM (inactive); in the assay on EKVX it was > 100 µM (inactive); in the assay with HCC 2998, > 100 µM (inactive); with HCT-15, greater than 100 µM. Moreover, the GI50 with HOP-62, in the assay with K562, in the assay on MOLT-4, in the assay on Malme-3M, with NCI-H23 and with SK-MEL-28 was > 100 µM (inactive) each time. Moreover, the GI50 is 14.1 µM (inactive) in the assay on SK-MEL-2, > 100 µM (inactive) in the assay with SN12C, > 100 µM (inactive) in the assay with TK-10 and > 100 µM (inactive) in the assay on U-251.
Regarding `Cc1ccccc1NC(=O)C(=O)c1c(O)c2ccc(O)cc2oc1=O`, the GI50 is > 100 µM (inactive) in the assay with 786-0; > 100 µM (inactive) in the assay with ACHN; > 100 µM (inactive) in the assay on DMS-273; greater than 100 µM with HCT-15; > 100 µM (inactive) with HOP-62; > 100 µM (inactive) with K562. In addition, the GI50 in the assay with MOLT-4, in the assay with Malme-3M, with NCI-H23, with SK-MEL-28, with SK-MEL-2 and in the assay on SN12C was > 100 µM (inactive) throughout. Further, the GI50 in the assay with SNB-75, with TK-10 and in the assay on U-251 was > 100 µM (inactive) throughout.
As to `CCCN(CCC)c1c([N+](=O)[O-])cc(C(N)=O)cc1[N+](=O)[O-]`, the GI50 was > 100 µM (inactive) in the assay on 786-0; > 100 µM (inactive) with ACHN; 58.9 µM (inactive) with DMS-273; 36.3 µM (inactive) with EKVX; 91 µM (inactive) in the assay on HCC 2998; 62.2 µM with HCT-15. The GI50 in the assay on K562 was 31.1 µM (inactive); in the assay on MOLT-4 it was 37 µM (inactive); in the assay on Malme-3M it was 62.1 µM (inactive); in the assay on NCI-H23 it was > 100 µM (inactive); in the assay with SK-MEL-28, > 100 µM (inactive); in the assay with SK-MEL-2, 74.5 µM (inactive). Moreover, the GI50 in the assay on SN12C was > 100 µM (inactive); in the assay with SNB-75, > 100 µM (inactive); with TK-10, > 100 µM (inactive); in the assay on U-251, 69 µM (inactive).
For the molecule `COC(=O)CNC(=O)CCC(C)[C@H]1CCC2C3C(C[C@H](OC(C)=O)[C@@]21C)[C@@]1(C)CCC2(C[C@H]1C[C@H]3OC(C)=O)OOC1(CC[C@]3(C)C4C[C@H](OC(C)=O)[C@@]5(C)C(CC[C@@H]5C(C)CCC(=O)NCC(=O)OC)C4[C@H](OC(C)=O)C[C@@H]3C1)OO2` (stereo partly drawn), the GI50 with 786-0 was 0.76 µM (active); in the assay with ACHN, 0.838 µM (active); in the assay with EKVX it was 0.993 µM (active); in the assay with HCC 2998, 0.944 µM (active); with HCT-15, 1.33 µM; with HOP-62, 0.746 µM (active). Further, the GI50 in the assay with K562 is 1.38 µM (inactive); with MCF7 it was 2.71 µM (inactive); in the assay on MOLT-4 it was 0.163 µM (active); in the assay with Malme-3M it was 0.782 µM (active); in the assay on NCI-H23, 1.03 µM (active); in the assay on PC-3 it was 1.64 µM (inactive). Also, the GI50 is 1.61 µM (inactive) in the assay on SK-MEL-28; 0.764 µM (active) in the assay with SK-MEL-2; 0.802 µM (active) with SN12C; 1.64 µM (inactive) with SNB-75; 0.381 µM (active) in the assay with SR; 1.19 µM (inactive) in the assay on TK-10. The GI50 in the assay on U-251 is 3.78 µM (inactive).
Take `CC(C)CC(NC(=O)OCc1ccccc1)C(=O)NC(Cc1ccccc1)C(=O)CCl` (stereo not drawn) (Cbz-Leu-Phe-CH2Cl; configuration not given here): the GI50 in the assay with 786-0 was 1.66 µM (inactive); in the assay on ACHN, 4.25 µM (inactive); in the assay with EKVX it was 18.6 µM (inactive); in the assay on HCC 2998, 13.2 µM (inactive); in the assay on HCT-15 it was 1.66 µM; in the assay on HOP-62 it was 16.1 µM (inactive). The GI50 in the assay with K562 is 0.7 µM (active); in the assay on MCF7 it was 2.55 µM (inactive); with MOLT-4, 0.664 µM (active); with Malme-3M, 1.92 µM (inactive); in the assay on NCI-H23 it was 2.03 µM (inactive); in the assay with PC-3, 4.76 µM (inactive). The GI50 with SK-MEL-28 is 1.85 µM (inactive); in the assay with SK-MEL-2, 2.05 µM (inactive); in the assay on SN12C, 1.77 µM (inactive); in the assay on SNB-75 it was 4.78 µM (inactive); in the assay with SR, 0.501 µM (active); in the assay with TK-10 it was 1.82 µM (inactive). In addition, the GI50 in the assay with U-251 was 8.38 µM (inactive).
